Laboratory results from a melting point compilation (Tetko et al.; mined from patent text by program, amines drawn as free bases though some values may be those of a salt).

Row | Structure (SMILES) | melting point [°C]
1 | O=C(O)COc1cc(-c2c3ccccc3c(Br)c3sc4ccccc4c23)ccc1Br | 174 to 175
2 | COc1ccc2c(=O)cc(-c3ccccc3Cl)oc2c1 | 148 to 150
3 | CCOC(=O)N=P(c1ccccc1)(c1ccccc1)c1ccccc1CN1CCCC1 | 120 to 122
4 | BrCc1ccc(-c2nc3ccccn3n2)cc1 | 196
5 | O=C1c2cccc3cccc(c23)C(=O)N1CCN1CCN(CCO)CC1 | 165 to 166
6 | CCOc1cc(Cc2ccccn2)ccc1CCCOc1c(CC(=O)O)cccc1OC | 97.5 to 98.5
7 | O=C(c1ccc(O)cc1)c1cc(Cl)cc(Cl)c1 | 183
8 | O=C1NC(=S)SC1=Cc1ccc(C(F)(F)F)o1 | 174
9 | CC(C)(C)c1cc(C2SCC(=O)N2CCCBr)cc(C(C)(C)C)c1O (centres undefined) | 130 to 131
10 | CNc1nc(N(C)C)nc2c1nnn2Cc1ccccc1F | 199 to 200
11 | C[C@@H]1N(C(=O)OC(C)(C)C)CC[C@]1(C)O | 109 to 112
12 | O=S(=O)(c1ccccc1)c1c[nH]c2ccc(N3CCN(Cc4ccccc4)CC3)nc12 | 238 to 239
13 | O=C(O)c1cnc(Cl)cc1C(F)(F)F | 115 to 117
14 | COC(=O)c1cc(SC(F)(F)F)c(-c2ccc(Cl)cc2)[nH]1 | 133 to 137
15 | CCOC(=O)Nc1cc(=O)c2cc(Oc3ccccc3)c(NS(C)(=O)=O)cc2o1 | 207 to 209
16 | CC(C)NCC(O)COc1ccc(-c2oc3ccccc3c2C(=O)c2ccccc2)cc1 (centres undefined) | 53 to 59
17 | CCOC(=O)c1cccc(Cn2cnc3ccncc32)c1 | 102 to 104
18 | COc1ccc(Cn2c(N)c(NC(=O)C(C)C)c(=O)[nH]c2=O)cc1OC | 207 to 210
19 | O=C(C=Cc1ccc(-c2ccc(O)c(Cl)c2)cc1)NO | 172 to 175
20 | COC(=O)c1ccc2c3cccc4cccc(c5ccc(C(=O)OC)c1c25)c43 | 256 to 257
21 | Cn1c(NC2CCNC(Cc3ccccc3)C2)nc2ccccc21 (centres undefined) | 86.3
22 | Nc1cccc(-c2ccccc2O)c1 | 158 to 161
23 | CC(C)NCC1(O)CCN(c2c(F)cc3c(=O)c(C(=O)O)cn(C4CC4)c3c2F)C1 (centres undefined) | 213 to 214

Row | Structure (SMILES) | melting point [°C]
24 | c1cncc(CCc2ccc(C3OCCO3)cc2)c1 | 46 to 47
25 | N#CCCCNC(=O)c1nn(C2CCCCO2)cc1NC(=O)c1ccccn1 (centres undefined) | 155 to 157
26 | CCC1(C)CC2(NC(=O)N(c3ccccc3)C2=O)C(C)C(C)(CC)N1 (centres undefined) | 150 to 153
27 | CCCCCCN=C=O | 68 to 72
28 | Cc1ccccc1CNC(=O)c1ccc2cnccc2n1 | 120 to 121
29 | Brc1nc2ncnc(NCc3ccccc3)c2[nH]1 | 233 to 235
30 | Cc1ccc(S(=O)(=O)N2C(C)CN3C(=O)c4ccccc4C32c2ccc(F)cc2)cc1 (centres undefined) | 215 to 217
31 | CS(=O)(=O)Nc1nc(CCN2CCC(c3c[nH]c4ccccc34)CC2)cs1 | 141 to 144
32 | CCOC(=NC(=O)NC)N1Cc2ccccc2-c2ccccc2C1 | 137 to 139
33 | CN1CCC(c2c[nH]c3ccc(SCc4ccccc4)cc23)CC1 | 138 to 141
34 | CC1(C)CCC(Cc2ccc(Cl)cc2)=CC1=O | 87 to 90
35 | COc1ccc(OCc2ccccn2)cc1/C=C/c1cc(/C=C/c2ccc3cc[nH]c3c2)n[nH]1 | 111 to 120
36 | O[C@H](CN[C@H]1CCCc2ccccc21)COc1cccc2ccccc12 | 107 to 109
37 | Cc1ccc(COc2ccccc2C=C2CCCCC2N2CCC2)cc1 (centres undefined) | 88 to 90
38 | O=C1OC(O)c2ccc([N+](=O)[O-])cc21 (centres undefined) | 157 to 160
39 | COc1cccc(C2NC(=O)N(C(C)C)c3cc(C)ccc32)c1 (centres undefined) | 167 to 169
40 | O=C1N(Cc2ccccc2)C2CSC(O)C2N1Cc1ccccc1 (centres undefined) | 163 to 164
41 | O=C(CCCCl)c1cc2c(s1)C(=O)NCCC2 | 163 to 165
42 | CC(=O)Nc1ccn(C2CCC(COC(C)=O)O2)c(=O)n1 (centres undefined) | 210 to 211
43 | Cc1ccc(Oc2ccc(C#N)cc2)c(O)c1 | 118 to 119
44 | CCc1cc(-c2ccc(NC(=O)N3CCc4cc(SC)c(C(F)(F)F)cc43)cc2)ccn1 | 158 to 161
45 | CC(C)c1ccccc1NC#N | 75 to 77
46 | CCNc1nc(C=O)cs1 | 84 to 85

Row | Structure (SMILES) | melting point [°C]
47 | O=S(=O)(c1ccc(C(CC2CCOCC2)c2ccc(-c3nnc(CO)s3)[nH]2)cc1)C1CC1 (centres undefined) | 208 to 209
48 | CCC(O)(CC)c1ccc(-c2cccc(OCc3ccc(CO)c(CO)c3)c2C)cc1 | 117 to 118
49 | CC(C)(C)c1cc(C2NNC(=S)N2N)cc(C(C)(C)C)c1O (centres undefined) | 260 to 270
50 | COC(=O)CC1NC(=O)C(Cc2ccccc2)NC1=O (centres undefined) | 217 to 218
51 | O=c1c2ccc(Cl)cc2n(Cc2ccccc2)n2c(Br)ccc12 | 148 to 149
52 | ONCc1ccccc1Cl | 71 to 73
53 | N#Cc1cc[nH]c1-c1ccc(Cl)cc1 | 165 to 166
54 | Fc1cc(F)c2c(c1)C(n1cc[nH]c1=S)CC2 (single isomer, unassigned; (+)) | 191 to 193
55 | O=c1c(-c2cccc(Cl)c2)coc2c(O)c(O)ccc12 | 258
56 | Cc1ccc(C(=O)c2c(Cl)cc(Cl)cc2Cl)cc1C(C)c1ccc(=O)[nH]n1 (centres undefined) | 221 to 222
57 | N#Cc1ccc(C(=O)CC2C=COc3ccccc32)cc1 (centres undefined) | 111
58 | O=C(NN=Cc1ccccc1O)c1cc2ccccc2cc1O | > 285
59 | CSc1nnc2n1C=Cc1ccccc1C2c1ccccc1 (centres undefined) | 169 to 170
60 | C#Cc1ccc(Br)c(C(F)(F)F)c1 | < 50
61 | N#Cc1ccc(CCn2ccn([C@H]3CCc4c(F)cc(F)cc4C3)c2=S)cc1 | 130 to 133
62 | O=C(O)c1ncn2c1CN=C(c1ccccc1Br)c1cc(F)ccc1-2 | 280 to 285
63 | Cc1c(CC(F)(F)C(F)(F)C(F)(F)F)c(-c2ccc(S(N)(=O)=O)cc2)c2n1CCC2 | 221
64 | Ic1cccc(-c2nnc(-c3ccc4ccccc4c3)o2)c1 | 156 to 158
65 | O=C1c2cccc3cc([N+](=O)[O-])cc(c23)C(=O)N1O | 277 to 279
66 | CCOC(=O)/C=C(C)/C(F)=C/C=C(\C)C=O | 70 to 74
67 | Nc1nc(NC2CCC2)c2ncn(C3C=CC(CO)C3)c2n1 (centres undefined) | 181 to 183
68 | O=C1NC(=O)c2ccc(I)cc2/C1=C/NCc1ccc(-n2cccc2)c(O)c1 | 230 to 231

More lines, now with the values ahead:

Row | melting point [°C] | Structure (SMILES)
69 | 290 to 295 | Cc1ccnc2c(-c3ccc(C)c4c(C)ccnc34)ccc(C)c12
70 | > 300 | Cc1[nH]c(=O)c(C#N)cc1-c1ccc2ncc(Cl)n2c1
71 | 91 to 94 | COc1ccc(CNC(=O)C23CC4CC(CC(C4)C2)C3)cc1
72 | 82.7 | CC(C)(C)OC(=O)N1CCC(Nc2cccc(NC(=O)c3ccc(F)cc3)n2)CC1
73 | 129 to 132 | COc1ccc(/C=C(/C(=O)OC(C)(C)C)C(=O)c2ccccc2O)cc1
74 | 150 to 154 | COC(=O)c1ccc2c(c1)S(=O)c1cc3c(cc1CC2)CCC3 (centres undefined)
75 | 160 | Cc1nc2ccccn2c(=O)c1CCN1CCC(c2coc3cc(F)ccc23)CC1
76 | 102 | O=C1C2=C(CCCC2)C(=O)N1c1ccc(Br)cc1F
77 | 120 to 122 | CC(C)c1cc(-c2ccccn2)c(-c2ccc(F)cc2)n1CCC=O
78 | 121 to 122 | Nc1cc(C(F)(F)F)ccc1N(N)C=O
79 | 128 | Cc1nc2cc3c(cc2c(=O)n1COC(=O)C(C)(C)C)CCC3
80 | 64 to 69 | CC(C)(C)OC(=O)NCC1=CC(c2ccccc2)Cc2c1ccc(OC(=O)C(C)(C)C)c2OC(=O)C(C)(C)C (centres undefined)
81 | > 102 | Cc1cc(C)cc(-c2[nH]c3ccc(C(C)(C)C(=O)O)cc3c2CCN(CCCCc2ccc(NS(C)(=O)=O)cc2)C(=O)OCc2ccccc2)c1
82 | 80 to 82 | COC(=O)c1cc(N(C)C)c(C(C)(C)C)c(N(C)C)c1
83 | 216 to 218 | CN(C)c1ccc(NC(=O)CCn2c(-c3ccc(Cl)cc3)nc3cccnc32)cc1
84 | 144 | Cc1cc(-c2cc(C(F)F)n3ncc(I)c3n2)ccc1Cl
85 | 260 | Oc1c2c3c(ccnc3c3ccccc13)CCC2
86 | 140 to 143 | COC(=O)c1cc(C)cc(OC)c1C1=CC(=O)c2c(O)cccc2C1=O

Row | melting point [°C] | Structure (SMILES)
87 | > 260 | Nc1nc(O)c2c(n1)NCC(CCc1ccc(C(=O)N[C@@H](CCC(=O)O)C(=O)O)[nH]1)C2 (some centres undefined)
88 | 136 to 139 | COc1cc(OC)nc(C(=O)NS(=O)(=O)Oc2c(Cl)cccc2Cl)n1
89 | 195 to 198 | COC(=O)C1Cc2c([nH]c3ccccc23)C(c2cc3ccccc3o2)N1 (centres undefined)
90 | 215 to 218 | CC(Oc1ncn(-c2ccc(C(F)(F)F)cc2)n1)C(=O)O (centres undefined)
91 | 192 to 194 | O=c1[nH]c(CCCn2ccnc2)nc2ccc(Cl)cc12
92 | 242 to 245 | O=[N+]([O-])c1ccc(Oc2ccc(Oc3ccc([N+](=O)[O-])c(O)c3)cc2)cc1O
93 | 230 to 232 | CC1(C)C(=O)Nc2cc(C(=O)CBr)ccc21
94 | 68 to 70 | CC(C)(C)OC(=O)[C@@H]1CCCN1C(=O)C1CCCC1SC(=O)c1ccccc1 (some centres undefined)
95 | 248 to 250 | CCOC(=O)C(=O)Nc1ccc2c(=O)n3c(nc2c1)C(=Cc1ccccc1)CC3
96 | 123 to 127 | FC(F)(F)c1ccc(-c2nc(-c3ccccn3)cs2)cc1
97 | 111 to 114 | COC(=O)CS(=O)(=O)Nc1c(F)cccc1Oc1nc(OC)cc(OC)n1
98 | 162 | O=C(Nc1ccc(OCc2ccccc2)cc1)C1CC1
99 | 93 to 94 | OCc1nn(-c2cccc(C(F)(F)F)c2)c2c1CCCC2
100 | 139 to 141 | CC(=O)C(C)S(=O)(=O)c1ccc(C=C(C)c2ccc3c(c2)C(C)(C)CCC3(C)C)cc1 (centres undefined)
101 | 161 to 163 | Cc1ccc(C(N)=O)cc1F
102 | 185 to 186 | CC(C)c1cc(N)c(S(N)(=O)=O)cc1S(N)(=O)=O
103 | 310 to 311 | Cc1cc(C)cc(C(=O)c2c(C(C)C)c(=O)[nH]c(=O)n2Cc2cc(C)nc(N3C(=O)c4ccccc4C3=O)c2)c1
104 | 128 to 130 | NC1CCCCCCCCCCC(=O)N1 (single isomer, unassigned; (-))
